Laboratory results reported in US4041158A, “O-alkyl-0-[1-(3-nitrophenyl)-2-carbalkoxy-vinyl ]-thiono(thiol)-phosphoric (phosphonic) acid esters” (priority 1974, dated 1977).
Read-outs that look alike come from different tables or passages of the source.

Key:
[1] = test system: Drosophila melanogaster; experiment: Drosophila test; assay type: in vivo; conditions: 24 h, after 1 day, read-out: Degree of destruction in % after 1 day; for mortality at 0.001 % strength: 0.001% by weight active compound; for mortality at 0.01 % strength: 0.01% by weight active compound
Method: Solvent: 3 parts by weight of dimethylformamide
(§1) Emulsifier: 1 part by weight of alkylaryl polyglycol ether
To produce a suitable preparation of active compound, 1 part by weight of the active compound was mixed with the stated amount of solvent containing the stated amount of emulsifier, and the concentrate was diluted with water to the desired concentration.
1 cm^3 of the preparation of the active compound was applied with a pipette to a filter paper disc of 7 cm diameter. The wet disc was placed over the orifice of a glass vessel containing 50 vinegar flies (Drosophila melanogaster) and covered with a glass plate.
After the specified periods of time, the destruction was determined in %. 100% means that all the flies were killed; 0% means that no flies were killed.

[2] = test system: Laphygma exigua; experiment: Laphygma test; assay type: in vivo
Method: (§2) Solvent: 3 parts by weight of acetone
as §1
To produce a suitable preparation of active compound, 1 part by weight of the active compound was mixed with the stated amount of solvent and the stated amount of emulsifier and the concentrate was diluted with water to the desired concentration.
Cotton leaves (Gossypium hirsutum) were sprayed with the preparation of the active compound until dew-moist and were then infested with caterpillars of the owlet moth (Laphygma exigua).
After the specified periods of time, the destruction in % was determined.

[3] = Toxicity test/peroral; conditions: in vivo, po; albino rat, peroral; evaluation after 7 days
Method: Test animal: Albino rat (Rattus norvegicus)
To produce a suitable preparation of active compound, 3 parts by weight of active compound were mixed with 2.8 parts by weight of highly-dispersed silica and 4.2 parts by weight of talc. Suspensions which contain, in 1 ml of liquid, the amount of active compound to be applied per 100 g of animal weight, were prepared from the above active compound concentrate, with a little added powdered vegetable gum, by grinding with water. Dosing was effected volumetrically after weighing the test animals. A steel knob-ended probe was used for oral administration. The evaluation was carried out in each case after the end of the above-mentioned time interval, calculated from the administration of the active compound.
The LD50 values (dose of active compound at which 50% of the treated animals were killed) were determined in the usual manner from the mortality figures of the doses, which were varied in geometrical progression.

[4] = test system: insects and acarids; conditions: in vivo; cited from earlier work
[5] = test system: Phaedon cochleariae; experiment: Phaedon larvae test (long-term action after spraying); assay type: in vivo; conditions: 0.05% active compound, Brassica oleracea
Method: as §2, §1
(§3) To produce a suitable preparation of active compound, 1 part by weight of the active compound was mixed with the stated amount of solvent containing the stated amount of emulsifier and the concentrate was diluted with water to the desired concentration.
(§4) Cabbage plants (Brassica oleracea), which were about 10-15 cm high, were sprayed with the preparation of the active compound until dripping wet.
After the specified periods of time, the plants were infested with mustard beetle larvae (Phaedon cochleariae). After intervals of 3 days, the destruction in % was determined. 100% means that all beetle larvae had been killed whereas 0% means that none of the beetle larvae had been killed.

[6] = test system: Myzus persicae; experiment: Myzus test (long-term action after spraying); assay type: in vivo; conditions: 0.05% active compound, Brassica oleracea
Method: as §2, §1, §3, §4
After the specified periods of time, the plants were infested with aphids (Myzus persicae). After intervals of 3 days, the destruction in % was determined. 100% means that all aphids had been killed whereas 0% means that none of the aphids had been killed.

[7] = test system: Lucilia cuprina; experiment: Test with parasitic fly larvae; assay type: in vivo; conditions: 24 hours, Lucilia cuprina res., read-out: Degree of destruction in %
Method: Solvent: 35 parts by weight of ethylene polyglycol monomethyl ether
35 parts by weight of nonylphenol polyglycol ether
To produce a suitable preparation of active compound, 30 parts by weight of the active substance in question were mixed with the stated amount of solvent which contained the abovementioned proportion of emulsifier and the concentrate thus obtained was diluted with water to the desired concentration.
About 20 fly larvae (Lucilia cuprina) were introduced into a test tube which contains approximately 2 cm^3 of horse muscle. 0.5 ml of the preparation of active compound was applied to this horse meat. After 24 hours, the degree of destruction in % was determined. 100% means that all larvae had been killed and 0% means that no larvae had been killed.

[8] = 0.001% by weight active compound
[9] = 0.01% by weight active compound
[10] = 96 h, 4 days, read-out: % destruction after 4 days
[11] = 192 h, 8 days, read-out: % destruction after 8 days

**Q.** With `CCCOP(=S)(OCC)OC(=CC(=O)OC(C)C)c1cccc([N+](=O)[O-])c1` (stereo not drawn) as the molecule, how does the mortality at 0.001 % strength [1] read?
**A.** 98%

**Q.** And the mortality at 0.01 % strength [1]?
**A.** 100%

**Q.** Which results are given for `CCOC(=O)C=C(OP(=S)(OC)OC)c1cccc([N+](=O)[O-])c1`?
**A.** Degree of destruction in % after 3 days [2, 8]: 85%; Degree of destruction in % after 3 days [2, 9]: 100%

**Q.** With `CCCOP(=S)(OCC)OC(=CC(=O)OCC)c1cccc([N+](=O)[O-])c1` (stereo not drawn) as the molecule, how does the LD50 at 168 h [3] read?
**A.** 50 to 100 mg/kg

**Q.** Which LD50 at 168 h [3] does the source give for `CCOC(=O)C=C(OP(=S)(OCC)c1ccccc1)c1cccc([N+](=O)[O-])c1` (stereo not drawn) here?
**A.** 50 to 100 mg/kg

**Q.** For `CCOC(=O)C=C(OP(=S)(OC)OC)c1ccc([N+](=O)[O-])cc1` [Compound A, O,O-dimethyl-O-[1-(4-nitrophenyl)-2-carbethoxyvinyl]-thionophosphoric acid ester], which “insecticidal and acaricidal properties” value [4] is on record?
**A.** possess insecticidal and acaricidal properties

**Q.** For `CCOC(=O)C=C(OP(=S)(OCC)OCC)c1ccc([N+](=O)[O-])cc1` [Compound B, O,O-diethyl-O-[1-(4-nitrophenyl)-2-carbethoxyvinyl]-thionophosphoric acid ester], which “insecticidal and acaricidal properties” value [4] is on record?
**A.** possess insecticidal and acaricidal properties

**Q.** What does the source list for `CCOC(=O)C=C(OP(=S)(OC)OC)c1ccc([N+](=O)[O-])cc1` [drawing 8, reference compound]?
**A.** mortality at 0.001 % strength [1]: 0%; mortality at 0.01 % strength [1]: 100%

**Q.** For `CCOC(=O)C=C(OP(=S)(OCC)OCC)c1cccc([N+](=O)[O-])c1` [drawing 9], which mortality at 0.001 % strength [1] is on record?
**A.** 99%

**Q.** And the mortality at 0.01 % strength [1]?
**A.** 100%

**Q.** What does the source list for `CCOP(=S)(OCC)OC(=CC(=O)OC(C)C)c1cccc([N+](=O)[O-])c1` [drawing 10]?
**A.** mortality at 0.001 % strength [1]: 100%; mortality at 0.01 % strength [1]: 100%

**Q.** For `CCOC(=O)C=C(OP(=S)(OC)OC)c1ccc([N+](=O)[O-])cc1` [drawing 12, reference compound], which “Degree of destruction in % after 3 days” value [2, 8] is on record?
**A.** 0%

**Q.** And the “Degree of destruction in % after 3 days” value [2, 9]?
**A.** 100%

**Q.** For `CCOC(=O)C=C(OP(=S)(OCC)OCC)c1cccc([N+](=O)[O-])c1` [drawing 14], which “Degree of destruction in % after 3 days” value [2, 8] is on record?
**A.** 100%

**Q.** And the “Degree of destruction in % after 3 days” value [2, 9]?
**A.** 100%

**Q.** Which “Degree of destruction in % after 3 days” value [2, 8] does the source give for `CCOP(=S)(OCC)OC(=CC(=O)OC(C)C)c1cccc([N+](=O)[O-])c1` [drawing 19] here?
**A.** 100%

**Q.** And the “Degree of destruction in % after 3 days” value [2, 9]?
**A.** 100%

**Q.** For `CCOC(=O)C=C(OP(=S)(OCC)OCC)c1ccc([N+](=O)[O-])cc1` [drawing 20], which mortality at 0.05 % strength [5, 10] is on record?
**A.** 100%

**Q.** What about the mortality at 0.05 % strength [5, 11] of the same molecule?
**A.** 100%

**Q.** What about the mortality at 0.05 % strength ([5]; 264 h, 11 days, read-out: % destruction after 11 days) of the same molecule?
**A.** 50%

**Q.** What about the mortality at 0.05 % strength ([5]; 360 h, 15 days, read-out: % destruction after 15 days) of the same molecule?
**A.** 0%

**Q.** Which mortality at 0.05 % strength [6, 10] does the source give for `CCOC(=O)C=C(OP(=S)(OCC)OCC)c1ccc([N+](=O)[O-])cc1` [drawing 23] here?
**A.** 50%

**Q.** What about the mortality at 0.05 % strength [6, 11] of the same molecule?
**A.** 0%

**Q.** With `CCOC(=O)C=C(OP(=S)(OCC)OCC)c1ccc([N+](=O)[O-])cc1` [drawing 26, reference compound] as the molecule, how does the LD50 at 168 h [3] read?
**A.** 10 to 25 mg/kg

**Q.** Which LD50 at 168 h [3] does the source give for `CCCSP(=S)(OCC)OC(=CC(=O)OCC)c1cccc([N+](=O)[O-])c1` (stereo not drawn) [drawing 27] here?
**A.** 100 to 250 mg/kg

**Q.** Which results are given for `CCCSP(=S)(OCC)OC(=CC(=O)OCC)c1cccc([N+](=O)[O-])c1` (stereo not drawn) [drawing 30]?
**A.** mortality at 10 ppm [7]: 100%; mortality at 30 ppm ([7]; 30 ppm): 100%; mortality at 100 ppm [7]: 100%

**Q.** With `CCOC(=O)C=C(OP(=S)(OCC)OCC)c1ccc([N+](=O)[O-])cc1` [drawing 31] as the molecule, how does the mortality at 10 ppm [7] read?
**A.** > 50%

**Q.** What about the mortality at 100 ppm [7] of the same molecule?
**A.** 100%
